Experiments:
[1] = biological target: Phosphodiesterase 4 (Rattus norvegicus, UniProt P14270+P14646+P14644+P54748); experiment: Inhibition of rolipram binding to PDE4 of rat brain
[2] = biological target: T1, Phosphodiesterase 4 (Homo sapiens, UniProt P27815+Q08499+Q07343+Q08493); experiment: Relative inhibition of phosphodiesterase 4 and rolipram binding; assay type: protein assay
[3] = biological target: T1, Phosphodiesterase 4; experiment: Inhibition of Phosphodiesterase 4 from human U937 cells; assay type: cell-based; conditions: u-937
[4] = Cmax in guinea pig after 3mg/kg oral dose; assay type: ADME, organism-based, Cavia porcellus; set-up: dose 3 mg/kg, route oral; conditions: in vivo
[5] = AUC in guinea pig after 3mg/kg oral dose; assay type: ADME, organism-based, Cavia porcellus, Plasma
[6] = Cmax in rat after 3mg/kg oral dose; assay type: ADME, organism-based; set-up: dose 3 mg/kg, route oral; conditions: in vivo
[7] = AUC in rat after 3mg/kg oral dose; assay type: ADME, organism-based; conditions: plasma
[8] = biological target: Phosphodiesterase 7 (Homo sapiens) (UniProt Q13946+Q9NP56); experiment: Inhibition of Phosphodiesterase 7 from human T-lymphocyte cell line; conditions: concentration not given here
Sequence of Phosphodiesterase 7 (Homo sapiens) (Q13946 whole entry, looked up): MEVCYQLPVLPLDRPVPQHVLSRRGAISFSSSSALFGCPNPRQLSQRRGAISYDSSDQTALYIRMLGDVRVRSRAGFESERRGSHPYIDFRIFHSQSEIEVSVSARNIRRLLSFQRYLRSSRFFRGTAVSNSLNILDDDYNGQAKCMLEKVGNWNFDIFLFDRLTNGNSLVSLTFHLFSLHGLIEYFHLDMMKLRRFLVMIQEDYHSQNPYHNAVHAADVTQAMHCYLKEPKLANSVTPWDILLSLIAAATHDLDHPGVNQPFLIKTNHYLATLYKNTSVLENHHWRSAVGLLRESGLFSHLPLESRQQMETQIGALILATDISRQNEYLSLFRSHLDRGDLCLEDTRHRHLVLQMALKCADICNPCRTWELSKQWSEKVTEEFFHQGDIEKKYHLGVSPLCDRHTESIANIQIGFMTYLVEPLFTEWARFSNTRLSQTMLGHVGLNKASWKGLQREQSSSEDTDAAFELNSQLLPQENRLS
Sequence of Phosphodiesterase 7 (Homo sapiens) (Q9NP56 whole entry, looked up): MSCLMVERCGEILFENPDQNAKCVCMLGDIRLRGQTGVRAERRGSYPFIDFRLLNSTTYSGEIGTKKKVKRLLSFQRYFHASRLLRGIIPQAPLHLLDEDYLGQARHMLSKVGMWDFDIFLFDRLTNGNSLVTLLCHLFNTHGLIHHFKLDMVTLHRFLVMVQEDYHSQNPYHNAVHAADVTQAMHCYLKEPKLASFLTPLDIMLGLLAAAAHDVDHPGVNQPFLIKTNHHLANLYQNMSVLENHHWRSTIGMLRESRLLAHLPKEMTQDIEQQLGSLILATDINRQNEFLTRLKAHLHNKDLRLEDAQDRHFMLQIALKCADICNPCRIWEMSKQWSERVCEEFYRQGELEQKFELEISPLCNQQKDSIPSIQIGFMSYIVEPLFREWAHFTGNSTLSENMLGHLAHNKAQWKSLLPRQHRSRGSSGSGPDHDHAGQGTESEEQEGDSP

[9] = biological target: Phosphodiesterase 3 (Homo sapiens) (UniProt Q14432+Q13370); experiment: Inhibition of Phosphodiesterase 3 from human platelets; conditions: concentration not given here
[10] = biological target: Phosphodiesterase 1 (Homo sapiens) (UniProt P54750+Q01064+Q14123); experiment: Inhibition of recombinant Phosphodiesterase 1; assay type: protein assay; conditions: concentration not given here
[11] = biological target: cGMP-specific 3',5'-cyclic phosphodiesterase (Homo sapiens) (UniProt O76074); experiment: Inhibition of Phosphodiesterase 5 from human platelets; conditions: concentration not given here
[12] = biological target: cGMP-dependent 3',5'-cyclic phosphodiesterase (Homo sapiens) (UniProt O00408); experiment: Inhibition of Phosphodiesterase 2; conditions: concentration not given here
Sequence of cGMP-dependent 3',5'-cyclic phosphodiesterase (Homo sapiens) (O00408 whole entry): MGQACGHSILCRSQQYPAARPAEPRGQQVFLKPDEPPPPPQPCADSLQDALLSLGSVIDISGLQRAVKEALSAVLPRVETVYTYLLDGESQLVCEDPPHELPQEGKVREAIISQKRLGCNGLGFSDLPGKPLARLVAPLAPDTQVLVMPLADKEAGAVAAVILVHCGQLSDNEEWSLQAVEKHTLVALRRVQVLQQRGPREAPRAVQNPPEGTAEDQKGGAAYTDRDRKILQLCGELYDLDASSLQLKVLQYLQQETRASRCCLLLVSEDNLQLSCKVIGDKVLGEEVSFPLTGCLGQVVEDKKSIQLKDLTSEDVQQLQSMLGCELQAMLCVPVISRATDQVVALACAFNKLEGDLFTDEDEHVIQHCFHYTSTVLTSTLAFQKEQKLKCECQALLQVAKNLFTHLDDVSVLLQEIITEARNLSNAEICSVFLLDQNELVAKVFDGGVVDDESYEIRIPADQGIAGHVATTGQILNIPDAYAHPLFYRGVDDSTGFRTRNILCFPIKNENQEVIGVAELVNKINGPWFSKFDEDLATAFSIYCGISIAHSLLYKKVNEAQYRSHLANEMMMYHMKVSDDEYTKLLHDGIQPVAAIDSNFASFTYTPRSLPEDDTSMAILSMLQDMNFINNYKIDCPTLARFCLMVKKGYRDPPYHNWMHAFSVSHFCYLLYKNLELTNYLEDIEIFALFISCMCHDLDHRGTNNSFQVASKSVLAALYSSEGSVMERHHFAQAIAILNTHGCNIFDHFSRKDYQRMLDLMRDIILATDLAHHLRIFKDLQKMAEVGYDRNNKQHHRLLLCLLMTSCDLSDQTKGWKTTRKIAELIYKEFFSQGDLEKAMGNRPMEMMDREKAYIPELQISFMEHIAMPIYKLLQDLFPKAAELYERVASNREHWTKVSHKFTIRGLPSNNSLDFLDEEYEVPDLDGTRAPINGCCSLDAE

[13] = biological target: T1, Phosphodiesterase 4; experiment: Inhibition of Phosphodiesterase 4; assay type: protein assay

SMILES | IC50 [1] | Ratio [2] | IC50 [3] | also measured
COc1ccc(C(=O)Nc2c(C)c[n+]([O-])cc2C)c2ccc(C(F)(F)F)nc12 | 380 nM | 0.39 | 150 nM | –
COc1ccc(C(=O)Nc2c(C)cncc2C)c2ccc(C(F)(F)F)nc12 | 58 nM | 2.1 | 120 nM | –
COc1ccc(C(=O)Nc2ccncc2Cl)c2ccc(C(F)(F)F)nc12 | 110 nM | 10 | 1120 nM | –
COc1ccc(C(=O)Nc2cc[n+]([O-])cc2Cl)c2ccc(C(F)(F)F)nc12 | 370 nM | 0.65 | 240 nM | –
COc1ccc(C(=O)Nc2c(F)cncc2F)c2ccc(C(F)(F)F)nc12 | 38 nM | 0.94 | 35 nM | –

Now from value to compound, other results behind:

IC50 [1] | Ratio [2] | IC50 [3] | SMILES | also measured
150 nM | 0.4 | 60 nM | COc1ccc(C(=O)Nc2c(Cl)c[n+]([O-])cc2Cl)c2ccc(C(F)(F)F)nc12 [SCH-351591] | Cmax [4]: 1390 ng/mL; AUC ([5]; in vivo): 15757 ng·h/mL; AUC ([5]; plasma, read-out: AUC): 15800 ng·h/mL; Cmax [6]: 3060 ng/mL; AUC [7]: 50500 ng·h/mL; inhibition [8]: 10%; inhibition [9]: 31%; inhibition [10]: 15%; inhibition [11]: 5%; inhibition [12]: 0%; IC50 [13]: 60 nM
60 nM | 1.17 | 70 nM | COc1ccc(C(=O)Nc2c(F)c[n+]([O-])cc2F)c2ccc(C(F)(F)F)nc12 | –
77 nM | 0.66 | – | COc1ccc(C(=O)Nc2c(Cl)cncc2Cl)c2ccc(C(F)(F)F)nc12 | Cmax [4]: 380 ng/mL; AUC ([5]; in vivo): 1174 ng·h/mL; AUC ([5]; plasma, read-out: AUC): 1170 ng·h/mL; AUC [7]: 6860 ng·h/mL
